Activity calls are given as the source filed them. The rule behind the calls is not given here.

Data set [1] has as its target Leucine--tRNA ligase, cytoplasmic (Homo sapiens) (UniProt Q9P2J5). Briefly: Inhibition of leucyl-tRNA synthetase (unknown origin) expressed in HEK293 cells assessed as inhibition of leucine-induced mTORC1-mediated S6 kinase phosphorylation pre-treated at 1 mM followed by leucine stimulation for 10 mins by immunoblotting analysis. The format is cell-based.
Data set [2] has the same target. Briefly: Inhibition of leucyl-tRNA synthetase (unknown origin) expressed in HEK293 cells assessed as inhibition of leucine-induced mTORC1-mediated S6 kinase phosphorylation pre-treated at 800 uM followed by leucine stimulation for 10 mins by immunoblotting analysis. In kind it is cell-based. (In general: A western blot detects proteins with antibodies after separation by electrophoresis.)

Data set [3] deals with HEK293. The data set is described as follows: Inhibition of mTORC2 (unknown origin) expressed in HEK293 cells assessed as inhibition of leucine-induced Akt S473 phosphorylation pre-treated at 800 uM followed by leucine stimulation for 10 mins by immunoblotting analysis. As to conditions: Homo sapiens. The format is cell-based.
The subject of data set [4] is SW-620. The data set is described as follows: Cytotoxicity against rapamycin resistant human SW620 cells at 400 uM to 4 mM by CellTox green fluorescent dye based assay. The format is functional, cell-based.
Data set [5] deals with HEK293. Briefly: Effect on cellular Akt level in HEK293 cells pre-treated at 800 uM followed by leucine stimulation for 10 mins by immunoblotting analysis. The format is ADME, cell-based. The following applies: human, hek293, 800 µM.
The target in data set [6] is Leucine--tRNA ligase, cytoplasmic (Homo sapiens) (UniProt Q9P2J5). Briefly: Inhibition of leucyl-tRNA synthetase (unknown origin) expressed in HEK293 cells assessed as inhibition of leucine-induced mTORC1-mediated S6 kinase phosphorylation pre-treated with compound followed by leucine stimulation for 10 mins by immunoblotting analysis. The format is cell-based.
Chain of Leucine--tRNA ligase, cytoplasmic (Homo sapiens) (Q9P2J5 whole entry, looked up): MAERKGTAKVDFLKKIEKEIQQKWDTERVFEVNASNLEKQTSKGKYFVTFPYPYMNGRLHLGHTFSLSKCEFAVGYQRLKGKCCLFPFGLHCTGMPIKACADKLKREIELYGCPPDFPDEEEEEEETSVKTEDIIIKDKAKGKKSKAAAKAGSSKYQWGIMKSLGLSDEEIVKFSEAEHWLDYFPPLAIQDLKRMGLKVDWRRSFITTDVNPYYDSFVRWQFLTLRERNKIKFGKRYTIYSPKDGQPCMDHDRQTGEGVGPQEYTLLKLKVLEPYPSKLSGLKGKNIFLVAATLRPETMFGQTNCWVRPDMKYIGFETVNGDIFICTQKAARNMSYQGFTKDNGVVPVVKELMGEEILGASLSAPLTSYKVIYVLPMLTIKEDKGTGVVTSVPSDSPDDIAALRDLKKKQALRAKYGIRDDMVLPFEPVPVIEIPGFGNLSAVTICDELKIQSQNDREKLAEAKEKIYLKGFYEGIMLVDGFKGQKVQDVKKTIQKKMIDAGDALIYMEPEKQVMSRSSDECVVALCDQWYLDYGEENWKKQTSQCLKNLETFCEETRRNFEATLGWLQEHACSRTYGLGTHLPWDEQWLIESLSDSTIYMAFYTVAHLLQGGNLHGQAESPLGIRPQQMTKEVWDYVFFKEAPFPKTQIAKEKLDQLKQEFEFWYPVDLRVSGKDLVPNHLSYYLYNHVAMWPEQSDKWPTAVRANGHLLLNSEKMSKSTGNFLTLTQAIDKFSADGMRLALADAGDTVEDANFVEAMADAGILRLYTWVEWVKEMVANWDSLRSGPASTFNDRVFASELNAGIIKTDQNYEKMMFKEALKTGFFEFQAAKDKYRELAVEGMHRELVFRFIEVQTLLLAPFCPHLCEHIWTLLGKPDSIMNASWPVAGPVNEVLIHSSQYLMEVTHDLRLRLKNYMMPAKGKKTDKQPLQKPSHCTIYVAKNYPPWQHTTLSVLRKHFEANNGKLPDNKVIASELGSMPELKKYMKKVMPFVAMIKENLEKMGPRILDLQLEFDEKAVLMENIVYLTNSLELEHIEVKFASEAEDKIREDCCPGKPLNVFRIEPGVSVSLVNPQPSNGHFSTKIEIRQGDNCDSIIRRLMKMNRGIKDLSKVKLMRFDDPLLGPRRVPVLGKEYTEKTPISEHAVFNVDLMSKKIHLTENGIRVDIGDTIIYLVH
The subject of data set [7] is HEK293. Briefly: Inhibition of mTORC2 (unknown origin) expressed in HEK293 cells assessed as inhibition of leucine-induced Akt S473 phosphorylation pre-treated at 100 nM to 800 uM followed by leucine stimulation for 10 mins by immunoblotting analysis. The format is cell-based. The following applies: Homo sapiens.
The test system of data set [8] is HEK293. Briefly: Effect on cellular Akt level in HEK293 cells pre-treated at 100 nM to 800 uM followed by leucine stimulation for 10 mins by immunoblotting analysis. The format is cell-based. The following applies: human.
Data set [9] has as its target Leucine--tRNA ligase, cytoplasmic (Homo sapiens) (UniProt Q9P2J5). The data set is described as follows: Inhibition of leucyl-tRNA synthetase (unknown origin) expressed in HEK293 cells assessed as inhibition of leucine-induced mTORC1-mediated S6 kinase phosphorylation pre-treated at 100 nM followed by leucine stimulation for 10 mins by immunoblotting analysis. In kind it is cell-based.

Data set [10] deals with HEK293. The data set is described as follows: Inhibition of mTORC2 (unknown origin) expressed in HEK293 cells assessed as inhibition of leucine-induced Akt S473 phosphorylation pre-treated at 100 nM followed by leucine stimulation for 10 mins by immunoblotting analysis. The format is cell-based. As to conditions: Homo sapiens.
In data set [11] the test system is SW-620. The data set is described as follows: Cytotoxicity against rapamycin resistant human SW620 cells at 1 uM by CellTox green fluorescent dye based assay. In kind it is functional, cell-based.
In data set [12] the test system is HEK293. Briefly: Effect on cellular Akt level in HEK293 cells pre-treated at 100 nM followed by leucine stimulation for 10 mins by immunoblotting analysis. In kind it is ADME, cell-based. The following applies: human, hek293, 0.1 µM.
Data set [13] addresses Leucine--tRNA ligase, cytoplasmic (Homo sapiens) (UniProt Q9P2J5). The data set is described as follows: Inhibition of leucyl-tRNA synthetase (unknown origin) catalytic activity assessed as aminoleucylation.
Data set [14] concerns SW-620. The data set is described as follows: Cytotoxicity against rapamycin resistant human SW620 cells by CellTox green fluorescent dye based assay. The format is functional, cell-based.

As to `CC(C)C[C@H](N)[C@@H](C)O`, the inhibition entry in data set [1] is “inactive”.

With `COC[C@@H](N)CC(C)C`, in [1], the inhibition entry is “inactive”.

For the compound `CC(C)C[C@H](N)CO`, the inhibition entry in [1] and in data set [2] was “Active” in each case. For the same compound, the inhibition entry in the data set on HEK293 [3] is “inactive”. In the data set on SW-620 [4], the result was Active. Moreover, the Activity entry in the data set on HEK293 [5] is on record as “Non-toxic”.

Consider `CC(C)C[C@H](N)[C@H](C)O`, for which the inhibition result in data set [1] was “inactive”.

Regarding `CC(C)C[C@H](N)CCO`, the inhibition entry in data set [1] is “inactive”.

As to `CC(C)C[C@H](N)CN`, the inhibition result in data set [1] is “inactive”.

For `CC(C)C[C@H]1COC(=O)N1`, the inhibition entry in [1] was “Active”. The inhibition entry in [6] was “Dose-dependent effect”. Besides, the inhibition result with HEK293 [7] is “inactive”. For the same compound, in the data set on HEK293 [8], the Activity entry is “Non-toxic”.

For the compound `CC(C)C[C@H](N)CCN`, in data set [1], the inhibition result was “inactive”.

As for `CC(C)C[C@H](N)CNO`, in data set [1], the inhibition result is “Active”. Also, in data set [6], the inhibition result is “Dose-dependent effect”. In the data set with HEK293 [7], the inhibition result is “inactive”. In the data set on HEK293 [8], the Activity result was “Non-toxic”.

For the compound `CC(=O)NC[C@@H](N)CC(C)C`, the inhibition result in data set [1] is “inactive”.

In the case of `CO[C@H]1C[C@@H]2CC[C@@H](C)[C@@](O)(O2)C(=O)C(=O)N2CCCC[C@H]2C(=O)O[C@H]([C@H](C)C[C@@H]2CC[C@@H](O)[C@H](OC)C2)CC(=O)[C@H](C)/C=C(\C)[C@@H](O)[C@@H](OC)C(=O)[C@H](C)C[C@H](C)/C=C/C=C/C=C/1C` [SIROLIMUS], in data set [9], the inhibition result was “Active”. Further, the inhibition entry with HEK293 [10] was “inactive”. Besides, the result in the data set on SW-620 [11] was inactive. Moreover, in the data set with HEK293 [12], the Activity entry is on record as “Non-toxic”.

As to `CC(C)C[C@H](N)COS(C)(=O)=O`, the inhibition entry in [1] was “inactive”.

On to `CC(C)C[C@H](N)CNS(C)(=O)=O`, for which the inhibition result in [1] is “inactive”.

For `CC(C)C[C@H](N)/C=N/O`, the inhibition entry in [1] was “inactive”.

Take `CC(C)C[C@H]1CNC(=O)N1`: in data set [1], the inhibition result is “Active”. Besides, the inhibition result in [6] was “Dose-dependent effect”. Further, the inhibition entry (in the data set on HEK293 [7]; in [13]) was “inactive” in each case. Moreover, the figures for the Activity result with SW-620 [14] and in the data set on HEK293 [8] were “Dose-dependent effect” and “Non-toxic”, respectively.

For the compound `CC(C)Cc1ncc[nH]1`, the inhibition result in [1] is “Active”. The inhibition entry in data set [6] was “Dose-dependent effect”. In addition, the inhibition entry (in the data set with HEK293 [7]; in data set [13]) was “inactive” in each case. For the same compound, the Activity entry with HEK293 [8] was “Non-toxic”.

The values are drawn from ChEMBL document CHEMBL3808272, “Discovery of (S)-4-isobutyloxazolidin-2-one as a novel leucyl-tRNA synthetase (LRS)-targeted mTORC1 inhibitor” (Bioorg Med Chem Lett, 2016).
